Measurements as given in patent US8389524B2, “Tricyclic nitrogen containing compounds as antibacterial agents” (Glaxo Group Limited, priority 2007, dated 2013).
Where a name gives a salt, the structure may show the parent alone.

Test system: Mycobacterium tuberculosis H37Rv
Experiment: Mycobacterium tuberculosis H37Rv Inhibition Assay (resazurin, MIC)
Assay type: cell-based
Details: ATCC 25618 / H37Rv, 144 h, H37Rv strain (ATCC25618), Middlebrook 7H9+ADC, six days at 37° C., resazurin fluorescence after 48 hours, read-out: MIC value

O=c1ccc2ccc(=O)n3c2n1C[C@H]3CN1CCC(NCc2ccc3c(c2)OCCO3)CC1 [Example 30, (1R)-1-({4-[(2,3-Dihydro-1,4-benzodioxin-6-ylmethyl)amino]-1-piperidinyl}methyl)-1,2-dihydro-4H,9H-imidazo[1,2,3-ij]-1,8-naphthyridine-4,9-dione hydrochloride] was tested. Which MIC did it give?
Its MIC is under 2 µg/mL.

How did the MIC turn out when CC1(NCc2cc3c(cn2)OCCS3)CCN(C[C@@H]2Cn3c(=O)ccc4ccc(=O)n2c43)CC1 [Example 23, (1R)-1-({4-[(2,3-Dihydro[1,4]oxathiino[2,3-c]pyridin-7-ylmethyl)amino]-4-methyl-1-piperidinyl}methyl)-1,2-dihydro-4H,9H-imidazo[1,2,3-ij]-1,8-naphthyridine-4,9-dione hydrochloride] was run?
The MIC was under 2 µg/mL.

How did the MIC turn out when O=C1COc2cc(Cl)c(CNC3CCN(C[C@@H]4Cn5c(=O)ccc6ccc(=O)n4c65)CC3)nc2N1 [Example 32, (1R)-1-[(4-{[(7-Chloro-3-oxo-3,4-dihydro-2H-pyrido[3,2-b][1,4]oxazin-6-yl)methyl]amino}-1-piperidinyl)methyl]-1,2-dihydro-4H,9H-imidazo[1,2,3-ij]-1,8-naphthyridine-4,9-dione dihydrochloride] was run?
The MIC was under 2 µg/mL.

Same assay, conditions: ATCC 25618 / H37Rv, 144 h, read-out: MIC value, H37Rv strain (ATCC25618), Middlebrook 7H9+ADC, six days at 37° C., resazurin fluorescence after 48 hours

With O=c1ccc2ncc(=O)n3c2n1CC3CN1CCC(NCc2cc3c(cn2)OCCS3)CC1 (racemic) [Example 20, 2-({4-[(2,3-Dihydro[1,4]oxathiino[2,3-c]pyridin-7-ylmethyl)amino]-1-piperidinyl}methyl)-1,2-dihydro-3H,8H-2a,5,8a-triazaacenaphthylene-3,8-dione hydrochloride] as the compound, how does the MIC read?
Its MIC is under 2 µg/mL.

With O=c1ccc2ccc(=O)n3c2n1C[C@H]3CN1CCC(NCc2nc3cccc(F)c3[nH]2)CC1 [Example 46, (1R)-1-[(4-{[(4-Fluoro-1H-benzimidazol-2-yl)methyl]amino}-1-piperidinyl)methyl]-1,2-dihydro-4H,9H-imidazo[1,2,3-ij]-1,8-naphthyridine-4,9-dione dihydrochloride] as the compound, how does the MIC read?
The MIC was under 2 µg/mL.

Which MIC does the source give for O=c1ccc2ccc(=O)n3c2n1C[C@H]3CN1CCC(NCc2cc3c(cn2)OCS3)CC1 [Example 5A, (1R)-1-({4-[([1,3]Oxathiolo[5,4-c]pyridin-6-ylmethyl)amino]-1-piperidinyl}methyl)-1,2-dihydro-4H,9H-imidazo[1,2,3-ij]-1,8-naphthyridine-4,9-dione hydrochloride] here?
Its MIC is under 2 µg/mL.

O=c1ccc2ccc(=O)n3c2n1CC3CN1CCC(NCc2cc3c(cn2)OCS3)CC1 (stereo not shown) [Example 2, 1-({4-[([1,3]Oxathiolo[5,4-c]pyridin-6-ylmethyl)amino]-1-piperidinyl}methyl)-1,2-dihydro-4H,9H-imidazo[1,2,3-ij]-1,8-naphthyridine-4,9-dione hydrochloride] was tested. Which MIC did it give?
The MIC was under 2 µg/mL.

O=c1cnc2ccc(=O)n3c2n1C[C@H]3CN1CCC(NCc2ccc3c(c2)OCCO3)CC1 [Example 44, (1R)-1-({4-[(2,3-Dihydro-1,4-benzodioxin-6-ylmethyl)amino]-1-piperidinyl}methyl)-1,2-dihydro-3H,8H-2a,5,8a-triazaacenaphthylene-3,8-dione hydrochloride] was tested. Which MIC did it give?
The MIC was under 2 µg/mL.

With O=c1ccc2ncc(=O)n3c2n1C[C@H]3CN1CCC(NCc2cc3c(cc2F)OCCO3)CC1 [Example 26, (2R)-2-[(4-{[(7-Fluoro-2,3-dihydro-1,4-benzodioxin-6-yl)methyl]amino}-1-piperidinyl)methyl]-1,2-dihydro-3H,8H-2a,5,8a-triazaacenaphthylene-3,8-dione hydrochloride] as the compound, how does the MIC read?
The MIC was at most 1 µg/mL.

For N#Cc1cc(CNC2CCN(C[C@@H]3Cn4c(=O)ccc5ncc(=O)n3c54)CC2)cc2c1OCCO2 [Example 42, 7-{[(1-{[(2R)-3,8-Dioxo-1,2-dihydro-3H,8H-2a,5,8a-triazaacenaphthylen-2-yl]methyl}-4-piperidinyl)amino]methyl}-2,3-dihydro-1,4-benzodioxin-5-carbonitrile hydrochloride], which MIC is on record?
The MIC was under 2 µg/mL.
